According to patent US8829197B2, “Salts and polymorphs of desazadesferrithiocin polyether analogues as metal chelation agents” (FerroKin Biosciences, Inc., priority 2008, dated 2014):
Where a name gives a salt, the structure may show the parent alone. Read-outs that look alike come from different tables or passages of the source. One block for each compound: values may come before it.

Columns and labels:
Type in all cases: physicochemical
[1] = Approximate solubility (aliquots of solvent, visual inspection)
Protocol: Weighed samples were treated with aliquots of test solvents at room temperature. Samples were typically sonicated between additions to facilitate dissolution. Complete dissolution of the test material in each solvent was determined by visual inspection. Solubility was estimated based on the total volume of solvent used to provide complete dissolution. The actual solubility may be greater than the value calculated due to the incremental addition of solvent and kinetics of dissolution of the material. […] The solubility is expressed as […] if dissolution occurred after the addition of first aliquot.
Approximate solubilities are calculated based on the total solvent used to give a solution based on visual inspection. Small aliquots of solvent are added to a weighed sample with agitation. Actual solubilities may be greater because of the volume of the solvent portions utilized or a slow rate of dissolution. Solubilities are reported to the nearest mg/mL. Simulated gastric fluid (SGF) was prepared according to the 2008 USP vol. 1, p 817 except without pepsin.
Approximate solubilities are calculated based on the total solvent used to give a solution based on visual inspection. Small aliquots of solvent are added to a weighed sample with agitation. Actual solubilities may be greater because of the volume of the solvent portions utilized or a slow rate of dissolution.

[2] = Relative humidity stress / physical stability on exposure and storage; conditions: for hygroscopicity (in words): judged from 75% RH exposure; for physical change when exposed to 75% RH: 75% RH for 3 days
From the text: Following isolation, salts were then characterized by one or more standard techniques including but not limited to x-ray powder diffraction (XRPD), single crystal x-ray diffraction (SC-XRD or XRD), nuclear magnetic resonance (NMR), solubility analysis, and stability testing by moisture sorption/desorption stress analysis and differential scanning calorimetry (DSC).

[3] = Moisture sorption/desorption (DVS) analysis; conditions: for weight loss on desorption: between ~95% and ~5% RH; for total weight gain (water uptake): relative humidity from ~5% to ~95% RH; for hygroscopicity (in words): from DVS data; for weight loss during desorption: desorption step, 95% to 5% RH
Protocol: Moisture sorption/desorption (DVS) data were collected on a VTI SGA-100 Vapor Sorption Analyzer. Sorption and desorption data were collected over a range of 5% to 95% relative humidity (RH) at 10% RH intervals under a nitrogen purge. Samples were not dried prior to analysis. Equilibrium criteria used for analysis were less than 0.0100% weight change in 5 minutes, with a maximum equilibration time of 3 hours if the weight criterion was not met. Data were not corrected for the initial moisture content of the samples. NaCl and PVP were used as calibration standards.

[4] = Water, salts of (S)-4′-(OH)-DADFT-PE (Table 16)
[5] = water, salts of (S)-4′-(OH)-DADFT-PE
[6] = listed as magnesium salt candidate
[7] = listed as Magnesium Salt of (S)-4′-(Oh)-DADFT-PE
[8] = listed as N-methyl-D-glucamine (NMG) Salt of (S)-4′-(OH)-DADFT-PE
[9] = listed as Tromethamine Salt of (S)-4′-(OH)-DADFT-PE
[10] = SGF (simulated gastric fluid, without pepsin), Table 14
[11] = Water, salts of (S)-3′-(OH)-DADFT-PE (Table 14)
[12] = water, salts of (S)-3′-(OH)-DADFT-PE
[13] = sorption step from 5% to 95% RH

Compound: COCCOCCOCCOc1ccc(C2=N[C@@](C)(C(=O)O)CS2)c(O)c1 [Calcium A]
solubility ([1]; 0.1N HCl in water, simulated gastric fluid, thermodynamic from solid, 0.1N HCl in Water, Table 16, read-out: Solubility): 3 mg/mL | solubility [1, 4]: <0.5 mg/mL | aqueous solubility (in words) [1, 5]: negligible | deliquescence upon ~75% RH stress [2]: No apparent deliquescence

Compound: COCCOCCOCCOc1ccc(C2=N[C@@](C)(C(=O)O)CS2)c(O)c1 [Lysine A, 2,6-diammoniohexanoate (S)-2-(2-hydroxy-4-(2-(2-(2-methoxyethoxy)ethoxy)ethoxy)phenyl)-4-methyl-4,5-dihydrothiazole-4-carboxylate]
solubility [1, 4]: <0.5 mg/mL | aqueous solubility (in words) [1, 5]: negligible | appearance upon ~75% RH stress [2]: became oily | deliquescence upon ~75% RH stress ([2]; listed as Lysine salt candidate): No apparent deliquescence

Compound: COCCOCCOCCOc1ccc(C2=N[C@@](C)(C(=O)O)CS2)c(O)c1 [Magnesium A]
solubility [1, 4]: 60 mg/mL | aqueous solubility ([1]; water, salts of (S)-4′-(OH)-DADFT-PE, listed as magnesium salt candidate): ~60 mg/mL | deliquescence upon ~75% RH stress [2, 6]: No apparent deliquescence | additional weight gain above ~85% RH [3, 7]: ~20.2 wt % | weight gain below ~85% RH [3, 7]: ~22.0 wt % | weight loss on desorption [3, 7]: ~41.2 wt % | total weight gain (water uptake) [3, 7]: ~42.7 wt % | total weight gain (water uptake) [3, 6]: ~42.7 wt % | weight loss upon equilibration at ~5% RH [3, 7]: ~0.7 wt %

Compound: COCCOCCOCCOc1ccc(C2=N[C@@](C)(C(=O)O)CS2)c(O)c1 [NMG A, 2,3,4,5,6-pentahydroxy-N-methylhexan-1-aminium (S)-2-(2-hydroxy-4-(2-(2-(2-methoxyethoxy)ethoxy)ethoxy)phenyl)-4-methyl-4,5-dihydrothiazole-4-carboxylate]
solubility [1, 4]: 60 mg/mL | aqueous solubility ([1]; water, salts of (S)-4′-(OH)-DADFT-PE, listed as NMG salt candidate): ~60 mg/mL | appearance upon ~75% RH stress [2]: became oily | deliquescence upon ~75% RH stress ([2]; listed as NMG salt candidate): No apparent deliquescence | additional weight gain above ~85% RH [3, 8]: ~27.0 wt % | weight gain below ~85% RH [3, 8]: ~34.7 wt % | weight loss on desorption [3, 8]: ~60.6 wt % | total weight gain (water uptake) [3, 8]: ~61.7 wt % | total weight gain (water uptake) ([3]; listed as NMG salt candidate): ~61.7 wt % | weight loss upon equilibration at ~5% RH [3, 8]: ~0.5 wt %

Compound: COCCOCCOCCOc1cccc(C2=N[C@@](C)(C(=O)O)CS2)c1O [magnesium salt Form B, magnesium (S)-2-(2-hydroxy-3-(2-(2-(2-methoxyethoxy)ethoxy)ethoxy)phenyl)-4-methyl-4,5-dihydrothiazole-4-carboxylate hydroxide]
weight loss upon equilibrium at 5% RH ([3]; 5% RH): 10.8% | additional weight gain during sorption ([3]; above 65% RH, equilibrium weight not reached): 21.2% | weight loss during desorption [3]: 26.6% | weight gain during sorption ([3]; from 5% to 65% RH): 5.7% | hygroscopicity (in words) [3]: hygroscopic

Compound: COCCOCCOCCOc1cccc(C2=N[C@@](C)(C(=O)[O-])CS2)c1O.[K+] [potassium salt Form A, potassium (S)-3′-desazadesferrithiocin polyether]
Approximate Solubility ([1]; ACN, Table 14): >6 mg/mL | Approximate Solubility ([1]; EtOAc/H2O, Table 14): >70 mg/mL | Approximate Solubility ([1]; IPA, Table 14): >68 mg/mL | Approximate Solubility ([1]; MEK, Table 14): <7 mg/mL | Approximate Solubility [1, 10]: ≧230 mg/mL | Approximate Solubility ([1]; THF, Table 14): ~ 5 mg/mL | Approximate Solubility [1, 11]: ≧48 mg/mL | aqueous solubility [1, 12]: ≥ 48 mg/mL | form obtained on exposure to 53% RH ([2]; 53% RH for 11 days at room temperature): Form B | physical change when exposed to 75% RH [2]: Complete deliquesce | weight loss during desorption [3]: 63.4% | hygroscopicity (in words) [3]: extremely hygroscopic | average percentage weight loss at plateau of absorption curve ([3]; plateau between 45 and 65% RH): 8.7% | weight gain during sorption [3, 13]: 67.7%

Compound: COCCOCCOCCOc1cccc(C2=N[C@@](C)(C(=O)[O-])CS2)c1O.[K+] [potassium salt Form B, potassium (S)-3′-desazadesferrithiocin polyether]
form conversion on exposure to 40° C. ([2]; 40° C. for 6 days): desolvated into a mixture with Form A | form conversion on exposure to P2O5 ([2]; P2O5 for 6 days): converted to a new form, namely Form C | physical stability of the form (in words) ([2]; low humidity (P2O5) or elevated temperature (40° C.)): unstable | weight loss during desorption [3]: ~66% | hygroscopicity (in words) [3]: extremely hygroscopic | average percentage weight gain at plateau of absorption curve ([3]; plateau between 35 and 65% RH): ~8% | weight gain during sorption [3, 13]: ~70%

Compound: zinc (S)-3′-desazadesferrithiocin polyether [Zinc salt of (S)-3′-(OH)-DADFT-PE]
Approximate Solubility [1, 10]: ≧39 mg/mL | Approximate Solubility [1, 11]: <1 mg/mL | aqueous solubility [1, 12]: ~1 mg/mL | physical change when exposed to 75% RH [2]: remained physically unchanged | hygroscopicity (in words) [2]: non-hygroscopic

The next lines start with results.

solubility ([1]; simulated gastric fluid (SGF) without pepsin, simulated gastric fluid, thermodynamic from solid, SGF (simulated gastric fluid, without pepsin), Table 14, read-out: Approximate Solubility): ≥ 50 mg/mL | solubility ([1]; water, thermodynamic from solid, Water, salts of (S)-3′-(OH)-DADFT-PE (Table 14), read-out: Approximate Solubility): ≥ 48 mg/mL | solubility ([1]; water, thermodynamic from solid, water, salts of (S)-3′-(OH)-DADFT-PE, read-out: aqueous solubility): ≥ 48 mg/mL | XRPD pattern after exposure to 75% RH ([2]; 75% RH for 8 days): remained unchanged | deliquescence when exposed to 75% RH ([2]; 75% RH for 8 days): did not deliquesce | hygroscopicity (in words) [2]: non-hygroscopic
Compound: COCCOCCOCCOc1cccc(C2=N[C@@](C)(C(=O)O)CS2)c1O [Magnesium salt of (S)-3′-(OH)-DADFT-PE, magnesium (S)-2-(2-hydroxy-3-(2-(2-(2-methoxyethoxy)ethoxy)ethoxy)phenyl)-4-methyl-4,5-dihydrothiazole-4-carboxylate hydroxide]

physical change when exposed to 75% RH [2]: remained physically unchanged | hygroscopicity (in words) [2]: non-hygroscopic | exposure to ambient air ([2]; lyophilized solid, ambient air (~57% RH) for a few minutes): solids deliquesced
Compound: COCCOCCOCCOc1cccc(C2=N[C@@](C)(C(=O)[O-])CS2)c1O.[Na+] [Sodium salt of (S)-3′-(OH)-DADFT-PE]

aqueous solubility ([1]; water, salts of (S)-4′-(OH)-DADFT-PE, listed as Tromethamine salt candidate): > 124 mg/mL | appearance upon ~75% RH stress at elevated temperature ([2]; one day relative humidity stress, ~75% RH, elevated temperature): become oily | deliquescence upon ~75% RH stress ([2]; listed as Tromethamine salt candidate): no apparent deliquescence | weight gain above ~65% RH ([3]; above ~65% RH): ~50.3 wt % | weight gain (water uptake) below ~65% RH ([3]; below ~65% RH): ~1.5 wt % | weight loss on desorption [3, 9]: ~48.4 wt % | total weight gain (water uptake) [3, 9]: ~51.8 wt % | weight loss upon equilibration at ~5% RH [3, 9]: ~0.7 wt %
Compound: COCCOCCOCCOc1ccc(C2=N[C@@](C)(C(=O)O)CS2)c(O)c1 [Tromethamine A, 1,3-dihydroxy-2-(hydroxymethyl)propan-2-aminium (S)-2-(2-hydroxy-4-(2-(2-(2-methoxyethoxy)ethoxy)ethoxy)phenyl)-4-methyl-4,5-dihydrothiazole-4-carboxylate]
hygroscopicity (in words) [3]: lower hygroscopicity compared to magnesium and NMG salt candidates

physical change when exposed to 75% RH [2]: deliquesced | hygroscopicity (in words) [2]: hygroscopic
Compound: C1CNCCN1.COCCOCCOCCOc1cccc(C2=N[C@@](C)(C(=O)O)CS2)c1O [piperazine salt of (S)-3′-(OH)-DADFT-PE]
